# Measurements as given in patent US6544995B1, “Use of cysteine derivatives for preparing a medicine for treating pathologies resulting from the formation of heterotrimeric G protein” (Societe de Conseils de Recherches et d'Applications …, priority 1998, dated 2003).
# Like-named read-outs stand apart in the source and are kept apart here. Where no end group is shown, it is not given here.
# Legend:
# [1] = system: production of cyclic AMP stimulated by VIP in MCF7 cells; assay: Cyclic AMP production stimulated by VIP in MCF-7 cells; assay type: cell-based, human; details: for Inhibition at 30 μM of production of cyclic AMP stimulated by VIP / inhibition at 30 µM: MCF7 cells, compound 30 μM for 30 minutes, then 10^-8 M VIP, n=1; for inhibition at 30 µM: Homo sapiens, 0.5 h
# Protocol: The cells are incubated for 30 minutes in the presence or not of compounds I, II, III and IV (30 μM) which are then stimulated by 10^−8 M of VIP. The quantification of cyclic AMP is determined by radioimmunoassay. The data represents the average±MSD (n=5 for the control and n=1 for the different compounds).
# adenylate cyclase [2] = details: pretreatment 30 minutes with 30 μM; forskolin 10 μM
# Protocol: (§1) MCF-7 cells (2.10^4 cells/well) seeded in 24-well plates are cultured for 5 days in Dulbecco's modified Eagle medium (Gibco-Brl, Cergy-Pontoise, France) completed with 10% of foetal calf serum inactivated by heating (Gibco-Brl, Cergy-Pontoise, France ), 50000 units/l of penicillin and 50 mg/l streptomycin (Gibco-Brl, Cergy-Pontoise, France), and 2 mM of glutamin (Gibco-Brl, Cergy-Pontoise, France). The culture medium is replaced after two washes with a medium without a serum completed or uncompleted with the specified agents for a time indicated in the different figures. Agents activating the production of cyclic AMP are then added at 37° C. The reaction is stopped after 30 minutes by suppressing the medium and rapidly adding 100 μl of a 0.1N solution of HCl. These extracts are frozen at −80° C. until they are used. The concentration of cAMP is measured using a commercial measurement kit (reference NEK033 from NEN, Les Ulis, France), following the manufacturer's instructions. The radioactivity is determined by a Gamma counter (Gamma Master-1277, LKB, Turku, Finland).
# MAP kinase = MAP kinase activity in MCF7 cells; assay type: cell-based, human; details: for activity of the MAP kinase after EGF stimulation: pretreatment 1 hour, then EGF for 5 minutes
# Protocol: After 24 hours of culture, the cells are incubated for 48 hours in medium containing no serum in order to return the cells to a state of rest. The cells are then treated for 1 hour either with compound I or with PD98059 (Calbiochem, France Biochem, Meudon, France), a specific inhibitor of MAP kinase activation. The cells are then stimulated (or not) for 5 minutes with 12.5 ng/ml of epidermal growth factor (EGF). The reaction is stopped by two washes with PBS (Gibco-Brl, Cergy-Pontoise, France), at 4° C. containing neither calcium nor magnesium and by adding 150 μl of lysis buffer at 4° C. the composition of which is the following: 10 mM of tris, 150 mM of NaCl, 2 mM of EGTA, 2 mM of dithiothreitol, 1 mM of PMSF, 2 mM of orthovanadate, 10 μg/ml of leupeptin and 10 μg/ml of aprotinin. Measurement of the proteins contained in the extracts is carried out by Bradford's method (Biorad reagents, Ivry-Sur-Seine, France). […] The radioactivity is determined using a Packard scintillation counter (Tricarb 5000CA).
# heterotrimeric G protein = assay type: cell-based, human
# adenylate cyclase [3] = system: adenylate cyclase
# Protocol: as §1
# [4] = system: production of cyclic AMP stimulated by VIP in MCF7 cells; assay: Cyclic AMP production stimulated by VIP in MCF-7 cells; assay type: cell-based, human
# MCF7 human tumour cells = assay: In vitro cell proliferation of MCF-7 cells (WST1); assay type: cell-based; details: 96 hours treatment, WST1 test, average of 2 experiments, read-out: IC50, inhibition of in vitro growth of MCF7 cells
# Protocol: The cells were treated on day 1 for 96 hours with increasing concentrations of up to 50 μM of each of the compounds to be tested. After this period, quantification of cell proliferation is determined by a colorimetric test, based on the cleavage of the WST1 tetrazolum salt by the mitochondrial dehydrogenases in the viable cells, leading to the formation of formazan (Boehringer Mannheim, Meylan, France). These tests are carried out in duplicate with 8 determinations per concentration tested. For each compound to be tested, the values included in the linear part of the sigmoid were retained for linear regression analysis and used to estimate the inhibitory concentration (IC50).
compound,measurement,setting,value
"CCCCC1c2nc(-c3ccccc3OC)cn2CCN1C(=O)C(N)CS (stereo not drawn) [compound (V), 7-(2-amino-1-oxo-3-thiopropyl)-8-butyl-2-(2-methoxyphenyl)-5,6,7,8-tetrahydroimidazo[1.2a]pyrazine]",Inhibition at 30 μM of production of cyclic AMP stimulated by VIP,[1],68%
COc1ccccc1-c1cn2c(n1)C(CC1CCCCC1)N(C(=O)C(N)CSSCC(N)C(=O)N1CCn3cc(-c4ccccc4OC)nc3C1CC1CCCCC1)CC2 (stereo not drawn) [compound (I)],effect on production of cyclic AMP induced by forskolin,adenylate cyclase [2],does not modify
same,Inhibition at 30 μM of production of cyclic AMP stimulated by VIP,[1],86%
same,activity of the MAP kinase after EGF stimulation,MAP kinase,halves
same,basal activity of the MAP kinase,"MAP kinase; treatment for 1 hour, no EGF",doubles
same,effect on production of cyclic AMP stimulated by choleric toxin,heterotrimeric G protein,greatly inhibited
same,effect on adenylate cyclase activity increased by prostaglandin E2,adenylate cyclase [3]; treatment for 30 minutes,inhibited
same,inhibition of accumulation of cyclic AMP stimulated by VIP at 100 μM,"[4]; 100 μM, 30-minute pretreatment, VIP 10 nM",almost complete inhibition
same,"inhibition of accumulation of cyclic AMP stimulated by VIP, concentration dependence","[4]; 30-minute pretreatment, VIP 10 nM",in a concentration-dependent manner
same,"effect on response to VIP, treatment for an hour",[4]; 1 hour treatment,sufficient to modify the response to VIP
same,"effect on production of cyclic AMP, longer treatments","[4]; 8 hours and 24 hours treatment, VIP",continue to inhibit
same,IC50,MCF7 human tumour cells,9.4 µM
COC(=O)[C@@H](CC(C)C)NC(=O)c1ccc(NC[C@@H](N)CS)cc1-c1ccccc1 [compound (IV)],inhibition at 30 µM,[1],52%
same,IC50,"MCF7 human tumour cells; Homo sapiens, MCF7",34.6 µM
"Cc1ccccc1-c1cn2c(n1)C(CC1CCCCC1)N(C(=O)C(N)CS)CC2 (stereo not drawn) [compound (III), 7-(2-amino-1-oxo-3-thiopropyl)-8-(cyclohexylmethyl)-2-(2-methylphenyl)-5,6,7,8-tetrahydroimidazo[1.2a]pyrazine]",Inhibition at 30 μM of production of cyclic AMP stimulated by VIP,[1],59%
same,IC50,MCF7 human tumour cells,16.1 µM
CC(C)CC1c2nc(-c3cccc4ccccc34)cn2CCN1C(=O)C(N)CSSCC(N)C(=O)N1CCn2cc(-c3cccc4ccccc34)nc2C1CC(C)C (stereo not drawn) [compound (II)],Inhibition at 30 μM of production of cyclic AMP stimulated by VIP,[1],71%
same,IC50,MCF7 human tumour cells,15 µM
"VIP: vasoactive intestinal peptide, ligand of a G protein-coupled receptor stimulating cyclic AMP synthesis (HSDAVFTDNYTRLRKQMAVKKYLNSILN; ends and bridges not checked; UniProt P01282 125-152, looked up) [reference compound]",intracellular quantity of cyclic AMP,[1]; treatment of MCF-7 cells with VIP alone,increases the intracellular quantity of cyclic AMP in a concentration-dependent manner
EGF: epidermal growth factor used to stimulate MAP kinase [reference compound],increase of MAP kinase activity,MAP kinase; stimulation by EGF for 5 minutes,approximately 7 times
"CCC(C)C1c2nc(-c3ccccc3OC)cn2CCN1C(=O)C(N)CSSCC(N)C(=O)N1CCn2cc(-c3ccccc3OC)nc2C1C(C)CC (stereo not drawn) [compound (VI), bis-1,1′-[7-(2-amino-1-oxo-3-thiopropyl)-2-(methoxyphenyl)-8-(1-methylpropyl)-5,6,7,8-tetrahydroimidazo[1.2a]pyrazine]]",Inhibition at 30 μM of production of cyclic AMP stimulated by VIP,[1],52%
"COc1cccc(-c2cc(=O)c3ccccc3o2)c1N [PD98059, reference compound]",activity of the MAP kinase after EGF stimulation,MAP kinase,halves
"CCCCC[C@H](O)/C=C/[C@H]1[C@H](O)CC(=O)[C@@H]1C/C=C\CCCC(=O)O [prostaglandin E2, reference compound]",activity of adenylate cyclase,"adenylate cyclase [3]; prostaglandin E2 alone, MCF7 cells",greatly increased
CCCC[C@H]1CN(C(=O)c2cccc3ccccc23)CCN1C[C@@H]1CSSC[C@H](N)C(=O)N1 [compound (VII)],inhibition at 30 µM,[1],65%
